Data on one compound can be found in ChEMBL document CHEMBL5154881, “Discovery of First-in-Class TAK1-MKK3 Protein-Protein Interaction (PPI) Inhibitor (R)-STU104 for the Treatment of Ulcerative Colitis through Modulating TNF-α Production” (J Med Chem, 2022).

Data set [1] concerns Mus musculus. Description: Antiinflammatory activity against IL-10-/- C57BL/6 mouse model of ulcerative colitis assessed as inhibition ratio of IL-23 mRNA expression in colon tissue at 3 mg/kg, IG via gavage and measured after 8 weeks by RT-qPCR analysis relative to control. The format is functional. More on the design: scale not given: the % may be the effect or the level left. (In general: Quantitative PCR measures a nucleic acid by following its amplification.)

The test system of data set [2] is Mus musculus. Kind of data set: Antiinflammatory activity against IL-10-/- C57BL/6 mouse model of ulcerative colitis assessed as inhibition ratio of TNF-alpha protein expression at 3 mg/kg, IG via gavage and measured after 8 weeks by ELISA relative to control. The data set is classed as functional. The arrangement: scale not given: the % may be the effect or the level left. (An ELISA detects its analyte on a solid surface through an enzyme-linked reagent.)

For data set [3], the system named is Mus musculus. Description: Anti-ulcerative colitis activity in DSS-induced C57BL/6 mouse ulcerative colitis model assessed as histopathological score recovery ratio at 1 mg/kg, IG via gavage measured after 7 days by H and E staining method relative to control. The format is functional. Particulars: time 7 day.
Data set [4] in a line: Mutagenicity in Salmonella typhimurium by Ames test. The data set is classed as toxicity. Particulars: salmonella enterica subsp. enterica serovar typhimurium. In general terms: The Ames test uses bacterial strains that need an amino acid and regain growth without it when mutated back.
Data set [5] concerns Mus musculus. Kind of data set: Antiinflammatory activity against IL-10-/- C57BL/6 mouse model of ulcerative colitis assessed as inhibition ratio of IL-1beta protein expression at 10 mg/kg, IG via gavage and measured after 8 weeks by ELISA relative to control. The format is functional. More on the design: scale not given: the % may be the effect or the level left.
For another data set, the system named is RAW264.7. Description: Inhibition of LPS-induced TNFalpha production in mouse RAW264.7 cells preincubated for 2 hrs followed by LPS treatment for 24 hrs by RT-qPCR analysis. The data set is classed as functional, cell-based.
Data set [6] can be described thus: Toxicity in C57 mouse assessed as liver damage at 50 to 500 mg/kg, po administered daily for 14 days. Particulars: in vivo, 336 h, dose 50-500 mg/kg, time 14 day. The data set is classed as organism-based.
The target in data set [7] is T1, Dual specificity mitogen-activated protein kinase kinase 3 (Homo sapiens, UniProt P46734).
T1 sequence (P46734 whole entry): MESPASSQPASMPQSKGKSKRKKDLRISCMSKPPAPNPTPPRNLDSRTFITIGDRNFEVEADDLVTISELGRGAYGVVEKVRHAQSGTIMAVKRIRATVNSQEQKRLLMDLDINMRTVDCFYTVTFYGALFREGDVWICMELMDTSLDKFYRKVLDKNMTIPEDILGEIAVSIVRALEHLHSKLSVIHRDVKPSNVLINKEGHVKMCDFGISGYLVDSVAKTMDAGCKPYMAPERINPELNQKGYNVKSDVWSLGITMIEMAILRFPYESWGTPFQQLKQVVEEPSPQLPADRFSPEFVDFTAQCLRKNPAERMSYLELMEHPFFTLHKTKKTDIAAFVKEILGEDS
Description: Binding affinity to CM5 chip immobilized human MKK3 (20 to 347 residues) expressed in Escherichia coli BL21 (DE3) assessed as dissociation constant, Kd by surface plasmon resonance analysis.

Data set [8] is described as follows: Apparent volume of distribution in 12 hr starved C57 mouse at 5 mg/kg, iv measured for 0.083 to 24 hrs post-dose by LC-MS-MS analysis. The format is ADME, organism-based. The note with it: in vivo, time 0.083-24 hrs, read-out: Vz.
Data set [9] deals with Mus musculus. Description: Antiinflammatory activity against DSS-induced C57BL/6 mouse model of acute ulcerative colitis assessed as inhibition ratio of IL-23 mRNA expression in colon tissue at 1 mg/kg, IG via gavage measured after 7 days by RT-qPCR analysis relative to control. The format is functional. The arrangement: scale not given: the % may be the effect or the level left. The note with it: time 7 day.

A short description of data set [10]: Inhibition of MKK3-p38-elF4E signaling pathway in mouse RAW264.7 cells assessed as inhibition of LPS-induced MKK3 phosphorylation. The data set is classed as cell-based.
Data set [11] deals with Mus musculus. Description: Antiinflammatory activity against DSS-induced C57BL/6 mouse model of acute ulcerative colitis assessed as reduction in serum TNF-alpha levels administered intragastrically via gavage measured after 7 days by ELISA. The format is functional, organism-based. The note with it: dose 1-10 mg/kg, route ig, time 7.0 day, DDE = dose-dependent effect.
Data set [12] can be described thus: Metabolic stability in dog liver microsomes assessed as intrinsic clearance at […] measured upto 60 mins in presence of NADPH by HPLC-MS analysis. The arrangement: dose or concentration left out as unconfirmed. The note with it: 1 h. The format is ADME, Canis lupus familiaris, Microsome.
Data set [13] has as its target T2, Dual specificity mitogen-activated protein kinase kinase 3 (Mus musculus) (UniProt O09110).
T2 sequence (whole entry): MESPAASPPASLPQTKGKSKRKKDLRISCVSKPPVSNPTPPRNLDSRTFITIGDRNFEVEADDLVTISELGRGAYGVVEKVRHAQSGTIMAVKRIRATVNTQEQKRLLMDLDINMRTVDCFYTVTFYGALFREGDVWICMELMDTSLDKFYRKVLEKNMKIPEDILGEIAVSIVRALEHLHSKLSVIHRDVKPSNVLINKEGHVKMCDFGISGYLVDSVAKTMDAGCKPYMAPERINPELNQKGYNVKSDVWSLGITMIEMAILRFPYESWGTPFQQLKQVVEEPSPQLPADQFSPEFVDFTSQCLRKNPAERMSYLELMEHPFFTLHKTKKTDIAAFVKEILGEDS
Description: Binding affinity to MKK3 in mouse RAW264.7 cells assessed as increase in thermal stability at 47 degC incubated for 24 hrs by CETSA. The data set is classed as cell-based. The note with it: dose 1-64 µM, DDE = dose-dependent effect.

The test system of data set [14] is Mus musculus. Kind of data set: Anti-ulcerative colitis activity against DSS-induced ulcerative colitis C57BL/6 mouse model assessed as reduction in DAI score at 10 mg/kg, IG via gavage administered for 7 days and measured everyday (reference value: 4.0). The format is functional. Particulars: time 7 day.
In data set [15] the test system is Mus musculus. Description: Inhibition of MKK3-p38 MAPK-elF4E signaling pathway in C57BL/6 mouse model of acute ulcerative colitis assessed as decrease in DSS-induced elF4E phosphorylation in colon tissue administered intragastrically via gavage measured after 7 days by Western blot analysis. Particulars: dose 1-50 mg/kg, time 7.0 day, DDE = dose-dependent effect.

Data set [16] deals with Mus musculus. Description: Anti-ulcerative colitis activity in IL-10-/- C57BL/6 mouse model of ulcerative colitis assessed as body weight recovery ratio at 10 mg/kg, IG via gavage for 8 weeks and measured everyday relative to control. The format is functional.
Data set [17] concerns Mus musculus. Description: Antiinflammatory activity against IL-10-/- C57BL/6 mouse model of ulcerative colitis assessed as inhibition ratio of IL-23 mRNA expression in colon tissue at 1 mg/kg, IG via gavage and measured after 8 weeks by RT-qPCR analysis relative to control. The data set is classed as functional. More on the design: scale not given: the % may be the effect or the level left.

The test system of data set [18] is Mus musculus. Description: Anti-ulcerative colitis activity in DSS-induced C57BL/6 mouse ulcerative colitis model assessed as histopathological score recovery ratio at 10 mg/kg, IG via gavage measured after 7 days by H and E staining method relative to control. The format is functional. Particulars: time 7 day.
The test system of data set [19] is Mus musculus. Kind of data set: Anti-ulcerative colitis activity against DSS-induced ulcerative colitis C57BL/6 mouse model assessed as reduction in DAI recovery score ratio at 1 mg/kg, IG via gavage administered for 7 days and measured everyday relative to control. The data set is classed as functional. The note with it: time 7 day. More on the design: scale not given: the % may be the effect or the level left.

The nature of data set [20]: AUC (0 to t) in 12 hr starved C57 mouse at 30 mg/kg, po measured for 0.083 to 24 hrs post-dose by LC-MS-MS analysis. More on the design: time upper 24 hrs, dose 30 mg/kg, time lower 0.083 hrs, route po. Particulars: in vivo. The format is ADME, organism-based.
In data set [21] the test system is Mus musculus. Kind of data set: Anti-ulcerative colitis activity in IL-10-/- C57BL/6 mouse model of ulcerative colitis assessed as body weight recovery ratio at 3 mg/kg, IG via gavage for 8 weeks and measured everyday relative to control. The format is functional.
The subject of data set [22] is Mus musculus. Kind of data set: Antiinflammatory activity against DSS-induced C57BL/6 mouse model of acute ulcerative colitis assessed as reduction in serum IL-23 levels administered intragastrically via gavage measured after 7 days by ELISA. Particulars: dose 1-10 mg/kg, route ig, time 7.0 day, DDE = dose-dependent effect. The format is functional, organism-based.

A short description of data set [23]: AUC (0 to infinity) in 12 hr starved C57 mouse at 5 mg/kg, iv measured for 0.083 to 24 hrs post-dose by LC-MS-MS analysis. More on the design: time upper 24 hrs, time lower 0.083 hrs, dose 5 mg/kg, route iv. Particulars: in vivo. The data set is classed as ADME, organism-based.

Structures are written as SMILES.

Consider `COc1ccc([C@H]2CC(=O)c3cc(OC)cc(OC)c32)cc1`, for which the Activity in the data set on Mus musculus [1] is 51.7%; in the data set on Mus musculus [2], 60.3%; with Mus musculus [3], 25%; in data set [4], “Non-Toxic”; with Mus musculus [5], 51.8%; in data set [6], “Non-Toxic”. In addition, the Activity is 71.7% with Mus musculus [9]; “Dde” in the data set on Mus musculus [11]; “Dde” in [13]; 2.2 with Mus musculus [14]; 19.4% in the data set with Mus musculus [16]; 31% in the data set on Mus musculus [17]. Moreover, the Activity in the data set on Mus musculus [18] was 70%; in the data set with Mus musculus [19], 20%; in the data set on Mus musculus [21] it was 14.8%; in the data set on Mus musculus [22], “Dde”. The values for the IC50 (in the data set on RAW264.7; in [10]) were 580 nM and 4000 nM, respectively. In addition, the Kd in data set [7] was 3.61 10^-3/s. In addition, in data set [8], the Vd came to 7.76 L/kg. Further, the CLH in data set [12] was determined as 121.4 mL/min/g. The inhibition entry with Mus musculus [15] was “Dde”. The compound also returned an AUC(0-t) in data set [20] of 9900 ng·h/mL. The same compound came in with an AUC(0-inf) in data set [23] of 8640 ng·h/mL.

The term IC50 denotes the point on the concentration scale where inhibition reaches its midpoint. As usually defined, the AUC(0-t) is the area under the concentration-time curve up to a stated or last time point. As usually defined, the AUC(0-inf) is total exposure, with the tail of the curve extrapolated.
